Assay results reported in PubChem BioAssay (NCI).
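Test compounds were applied to cells in 96-well plates for 48 hours at 5 doses. Abbreviation: GI50, concentration required for 50% inhibition of growth. TGI: total growth inhibition.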

Columns and labels:
Experiment in all cases: DTP human tumour cell line panel, 48 h
[1] = system: HOP-92 NSCLC
[2] = system: UACC-257 melanoma
[3] = system: HOP-62 NSCLC
[4] = system: ACHN renal
[5] = system: MCF7 breast
[6] = system: SK-MEL-2 melanoma
[7] = system: IGROV1 ovarian
[8] = system: SN12C renal
[9] = system: 786-0 renal
[10] = system: NCI-H460 lung
[11] = system: SR leukemia

Row | Compound | TGI [1] [µM] | TGI [2] [µM] | TGI [3] [µM] | TGI [4] [µM] | TGI [5] [µM] | TGI [6] [µM] | TGI [7] [µM] | TGI [8] [µM] | TGI [9] [µM] | TGI [10] [µM] | TGI [11] [µM] | GI50 [1] [µM] | GI50 [2] [µM] | GI50 [4] [µM] | GI50 [6] [µM] | GI50 [7] [µM] | GI50 [8] [µM] | GI50 [10] [µM]
1 | Cc1nnc(N)nc1C/C=C/C(C)Sc1ccc(Cl)cc1 (stereo not drawn) | 68.8 | 30.8 | 25.4 | 29 | 33.2 | 30.6 | 13.5 | > 80.6 | 33.1 | 30.3 | – | – | – | – | – | – | – | –
2 | Cc1cnc2c(c1)C(=O)N(c1ccc(Br)cc1)S2(=O)=O | – | > 100 | > 100 | > 100 | > 100 | > 100 | > 100 | > 100 | > 100 | > 100 | – | – | – | – | – | – | – | –
3 | COc1cc2c(c(OC)c1)C(=O)C(=O)C(CC1(C)OCCCO1)=C2 | 4.41 | 27.4 | 32.6 | 17.9 | – | 30.3 | 27.8 | 26.8 | 22 | 26.6 | – | – | – | – | – | – | – | –
4 | N#Cc1c2c(c(Nc3cccc(C(F)(F)F)c3)n3c1nc1ccccc13)CCCC2 | 22.5 | > 100 | 36.3 | > 100 | – | – | – | 88.8 | 27.9 | > 100 | – | – | – | – | – | – | – | –
5 | COc1cc2cnc3c4cc(O)ccc4ccc3c2cc1OC | > 100 | > 100 | > 100 | > 100 | – | 87.2 | > 100 | > 100 | > 100 | > 100 | > 100 | – | – | – | – | – | – | –
6 | CCOC(OCC)[C@@H]1C[C@@H]2N(O[C@H](OC3CCCC3(c3ccccc3)c3ccccc3)[C@H](OC(C)=O)[C@@]2(CC)Cc2ccc(OC)c(OC)c2)O1 (stereo partly drawn) | – | > 100 | > 100 | > 100 | > 100 | > 100 | > 100 | > 100 | > 100 | > 100 | > 100 | – | – | – | – | – | – | –
7 | CCOC(=O)C1=C(C)C2C3C(=O)OC(=O)C3C1(C)C1C(=O)OC(=O)C21 (stereo not drawn) | > 100 | > 100 | > 100 | > 100 | – | > 100 | > 100 | > 100 | > 100 | > 100 | – | – | – | – | – | – | – | –
8 | CN(CCO)c1nc(=O)c2c(n1C1OC(CO)C(O)C(O)C1O)CCCC2 (stereo not drawn) | > 100 | > 100 | > 100 | > 100 | – | > 100 | > 100 | > 100 | > 100 | > 100 | > 100 | – | – | – | – | – | – | –
9 | COc1c(N2CCCCC2)c2c(=O)c3ccccc3oc2c2c3ccccc3n(C)c12 | > 100 | > 100 | > 100 | > 100 | > 100 | > 100 | – | > 100 | > 100 | > 100 | – | – | – | – | – | – | – | –
10 | CC(C)(C)C1CCC2c3c([nH]c4ccccc34)C3C(=O)N(c4cc(Cl)ccc4Cl)C(=O)C3C2C1 (stereo not drawn) | > 100 | > 100 | > 100 | > 100 | > 100 | > 100 | > 100 | > 100 | > 100 | > 100 | – | – | – | – | – | – | – | –
11 | O=C1NC(NNc2ccccc2)=N/C1=C\c1ccco1 | 30.6 | 63.5 | > 100 | 25.9 | 34 | 48.2 | 34 | 49.9 | 40.2 | 55 | – | – | – | – | – | – | – | –
12 | CCOC(=O)c1cc(C2CCN(Cc3ccccc3)C2=O)c(C(=O)/C=C(/C)N)[nH]1 (stereo not drawn) | 97.5 | > 100 | > 100 | > 100 | > 100 | > 100 | > 100 | – | > 100 | > 100 | – | – | – | – | – | – | – | –
13 | CCCC1(N2C(=O)c3ccc4c5c(ccc(c35)C2=O)N(C2(CCC)CCCCC2)C4=O)CCCCC1 | > 100 | – | > 100 | > 100 | > 100 | > 100 | – | > 100 | > 100 | > 100 | – | – | – | – | – | – | – | –
14 | CC(Cn1c(=O)oc2ccccc21)N(C)C (stereo not drawn) | – | > 100 | > 100 | > 100 | > 100 | > 100 | > 100 | > 100 | > 100 | > 100 | > 100 | – | – | – | – | – | – | –
15 | N#C/C(=C\c1ccccc1F)C(=O)c1ccccc1 | > 100 | > 100 | > 100 | > 100 | – | > 100 | > 100 | > 100 | > 100 | – | > 100 | – | – | – | – | – | – | –
16 | Cc1ccc2nc(-c3nccn3C)cc(C(=O)NC(C)CN(C)C)c2c1 (stereo not drawn) | > 100 | > 100 | > 100 | > 100 | > 100 | > 100 | > 100 | > 100 | > 100 | > 100 | – | – | – | – | – | – | – | –
17 | Cn1cc(-c2csc(-c3cn(CCCN4CCCCC4)c4ccc(Br)cc34)n2)c2cccnc21 | 3.63 | 3.43 | – | 3 | – | 3.74 | 3.33 | 3.31 | – | 3.4 | – | 1.79 | 1.8 | 1.65 | 1.94 | 1.63 | 1.74 | 1.87
18 | COc1c(-c2ccc(F)cc2)oc2c(CC(=O)O)cccc2c1=O | – | > 100 | > 100 | > 100 | > 100 | > 100 | > 100 | > 100 | > 100 | – | > 100 | – | – | – | – | – | – | –
19 | [O-][N+]1=C(c2ccccc2)/C(=C2/C(c3ccccc3)=[N+]([O-])c3ccccc32)Cc2ccccc21 | 32.9 | 40.9 | > 100 | 50.6 | > 100 | 36.6 | 35.2 | 32.4 | 34.9 | – | – | – | – | – | – | – | – | –
20 | O=C(N/N=C/c1cc(Cl)cc(Cl)c1[OH2+])c1ccncc1.O=S(=O)([O-])[O-].[Fe+2] | 9.66 | 41.7 | 34.9 | 28.1 | – | 94.9 | 15.4 | 79.3 | 53.9 | 22.4 | 54.6 | 3.71 | – | – | 82.9 | – | – | –
21 | Clc1ccc2c(c1)CC1C[N+]3=C(CCCCC3)C1=C2 (stereo not drawn) | 95.2 | 94.1 | > 100 | > 100 | > 100 | 97 | > 100 | > 100 | > 100 | > 100 | – | – | – | – | – | – | – | –
